Results: patent US5157052A, “Method for inhibiting IgE production” (priority 1990, dated 1992)

Columns and labels:
Assay type in all cases: in vivo, mouse (Balb/c female)
IgG1 = test: Serum IgG1 in anti-IgD stimulated mice (two site sandwich ELISA, Assay B)
Method: (§1) Sera from mice treated with compounds in accordance with the method of the invention are analyzed for levels of IgG1, IgG2a, IgG3, and IgM.
Mouse IgG1 measurement by a two site sandwich ELISA is as follows. About 5 μg of rabbit anti mouse IgG (Organon-Teknika-Cappel, Malvern, Pa.) is attached to the wells of a NuncImmulon 96 well plate and IgG1 levels are determined in substantial accordance with Assay A except with the following changes. The IgG1 standard is purchased from Southern BioTech, Birmingham, Ala., and stored at 10 μg/ml in 2% NBS in PBS at 4° C. The standard curve is prepared by diluting the mouse IgG1 standard in 0.05% Tween-80 in PBS, and is linear between 3.9 and 250 ng/ml. Serum containing IgG1 is diluted 1/10,000 to 1/1,000,000 in 0.05% Tween 80-PBS, to place the measurement within the standard curve. Standard IgG1 (or diluted serum) is incubated at about 37° C. for 1 hour and the plates are washed with 0.05% Tween 80-PBS as described in Assay A. About a 1/3,000 dilution of Goat anti mouse IgG1 (Southern Biotech, Birmingham, Ala.) conjugated to alkaline phosphatase in 0.05% Tween 80-PBS is added to each well and incubated at about 37° C. for 60 minutes. The plate is washed and colorimetric substrate, prepared as described by the manufacturer (Alkaline Phosphatase Substrate System, KPL, Gaithersburg, Md.), is added and optical density and data analysis is performed in the same manner as Assay A.
(§2) Sera from the mice described in Example 13 are analyzed for the levels of IgG1, IgG2a, and IgG3 by Assays B, C, and D, respectively.
(§3) Two groups of 4 Balb/c female mice per group are injected with both 100 μg FF1-4D5 antibody and 100 μg H∂A1 antibody. One of these groups is a stimulated control designated Group B. On day 3 and 4, the other group is injected with 40 μg (±) methyl 11α, 16-dihydroxy-1-methyl-9-oxoprosta-4Z,13E-dien-1-oate. Another group is injected with only PBS as an unstimulated control (Group A). On day -1 and 8, 50-100 μl of serum is recovered and analyzed for IgE, IgG1 and IgG2a by Assays A, B, and C, respectively.
(§4) 3 groups of 4 Balb/c female mice per group are injected with both 100 μg FF1-4D5 antibody and 100 μg H∂A1 antibody on day 0. Group A is given no further treatment. On day 3 and 4, one group of mice is injected with 20 μg (±) methyl 2-[2-[3R-3α-hydroxy-2β-(4-hydroxy-4-methyl-1E-octenyl-5-oxo-1α-cyclopentyl]-methyl]cyclopropanebutanoate (Group B) and another group with 20 μg (±) methyl 2-[2-[3R-3α-hydroxy-2β-(4-hydroxy-4-methyl-1E-octenyl)-5-oxo-1α-cyclopentyl]ethyl]cyclopropanepropanoate (Group C) as in Example 13. On day -1 and 8, 50-100 μl of serum is recovered and analyzed for IgE, IgG1, IgG2a and IgG3 by Assays A, B, C and D, respectively. The selectivity of inhibition of IgE is shown in Table 12.
(§5) Three groups of 5 Balb/c female mice per group are injected with both 100 μg FF1-4D5 antibody and 100 μg H∂A1 antibody on day 0. Group A is a control with no further treatment. On day 3 and 4, the mice are injected with 20 μg (±) methyl 11α,16-dihydroxy-4,4,16-trimethyl-9-oxoprosta-13E-en-1-oate (Group B) or 20 μg (±) methyl 11α,16-dihydroxy-16-methyl-9-oxoprosta-3,5Z,13E-trien-1-oate (Group C) as in Example 13. On day -1 and 8, […] of serum is recovered and analyzed for IgE, IgG1, IgG2a, IgG3 and IgM by Assays A, B, C, D and E, respectively.

IgG2a = test: Serum IgG2a in anti-IgD stimulated mice (two site sandwich ELISA, Assay C); conditions: for IgG2a ±: Table 12, day 8 (control 849)
Method: as §1
Measurement of mouse IgG2a by a two site sandwich ELISA is performed in substantial accordance with the teaching of Assay B except with the following changes. NuncImmulon II plates are used in this assay. The IgG2a standard is purchased from Southern Biotech. The standard curve is linear between 4-250 ng/ml. Serum containing IgG2a is diluted 1/6400 to 1/1,000,000. About a 1/6,000 dilution of goat anti mouse IgG2a (Southern Biotech) conjugated to alkaline phosphatase is used.
as §2, §3, §4, §5

IgM = test: Serum IgM in anti-IgD stimulated mice (two site sandwich ELISA, Assay E); conditions: 20 μg days 3 and 4; for inhibition of IgM: Example 25; for IgM ± SD: Table 14, day 8 (control 4147)
Method: as §1
Measurement of mouse IgM by a two site sandwich ELISA is performed in substantial accordance with the teachings of Assay B except for the following changes. About 250 ng of rabbit anti-mouse IgM (Zymed Laboratories) is used to coat a NuncImmulon 96 well plate. The IgM standard is purchased from Southern Biotech. The standard curve is linear between 8-500 ng/ml. Serum containing IgM is diluted 1/4,000 to 1/60,000. About a 1/10,000 dilution of goat anti mouse IgM conjugated to horse radish peroxidase is used as a combined primary antibody and developing reagent. 100 μl is added to each well and the plate is incubated at about 4° C. overnight. The colorimetric substrate is prepared and used as described in Assay A.
Two groups of 4 Balb/c female mice per group are injected with both 100 μg FF1-4D5 antibody and 100 μg H∂Al antibody. On day 3 and 4 the mice are injected with PBS (Group A) or 20 μg (±) methyl 11α,16-dihydroxy-16-ethyl-9-oxoprosta-5Z,13E-dien-1-oate (Group B) at 7 a.m., 1 p.m. and 7 p.m. in substantial accordance with the teaching of Example 13. On day -1, 7, 8, 9 and 11, 50-100 μl of serum is recovered and analyzed for IgE by Assay A and for IgM by Assay E. The results are shown in Table 6.
as §5

[1] = Table 14, 20 μg days 3 and 4, day 8 (control 21703)
[2] = Table 14, 20 μg days 3 and 4, day 8 (control 1246)
[3] = 40 μg IP days 3 and 4, day -1 baseline before treatment
[4] = Table 12, 20 μg days 3 and 4, day 8 (control 10525)

Structure (SMILES): CCCCC(C)(O)C/C=C/[C@H]1[C@H](O)CC(=O)[C@@H]1CCCC(C)(C)CCC(=O)OC (mixture of isomers) [(±) methyl 11α,16-dihydroxy-4,4,16-trimethyl-9-oxoprost-13E-en-1-oate]
- inhibition of IgG1 (IgG1; 20 μg days 3 and 4, Example 25): not IgG1, IgG2a, IgG3 and IgM
- IgG1 ± SD (IgG1; [1]): 22555 ± 5821 µg/mL
- inhibition of IgG2a (IgG2a; 20 μg days 3 and 4, Example 25): not IgG1, IgG2a, IgG3 and IgM
- IgG2a ± SD (IgG2a; [2]): 1019 ± 278 µg/mL
- inhibition of IgM (IgM): not IgG1, IgG2a, IgG3 and IgM
- IgM ± SD (IgM): 9792 ± 984 µg/mL

Structure (SMILES): CCCCC(C)(O)C/C=C/[C@H]1[C@H](O)CC(=O)[C@@H]1C/C=C\CCCC(=O)OC (mixture of isomers) [(±) methyl 11α,16-dihydroxy-16-methyl-9-oxoprosta-5Z,13E-dien-1-oate]
- IgG1 ± SD (IgG1; 40 μg IP days 3 and 4, day 8): 15666 ± 2300 µg/mL
- IgG1 ± SD (IgG1; [3]): 175 ± 32 µg/mL
- IgG2a ± SD (IgG2a; 2 μg IP days 3 and 4, day 7 (control 139)): 114 ± 61 µg/mL
- IgG2a ± SD (IgG2a; 2 μg IP days 3 and 4, day 8 (control 554)): 277 ± 111 µg/mL
- IgG2a ± SD (IgG2a; 2 μg IP days 3 and 4, day 9 (control 923)): 1053 ± 256 µg/mL
- IgG2a ± SD (IgG2a; 2 μg IP days 3 and 4, day 11 (control 951)): 1124 ± 219 µg/mL
- IgG2a ± SD (IgG2a; 2 μg IP days 3 and 4, day -1 baseline before treatment): 25 ± 25 µg/mL
- IgG2a ± SD (IgG2a; 5 μg IP days 3 and 4, day 7): 133 ± 67 µg/mL
- IgG2a ± SD (IgG2a; 5 μg IP days 3 and 4, day 8): 481 ± 192 µg/mL
- IgG2a ± SD (IgG2a; 5 μg IP days 3 and 4, day 9): 1093 ± 245 µg/mL
- IgG2a ± SD (IgG2a; 5 μg IP days 3 and 4, day 11): 1540 ± 201 µg/mL
- IgG2a ± SD (IgG2a; 5 μg IP days 3 and 4, day -1 baseline before treatment): 58 ± 66 µg/mL
- IgG2a ± SD (IgG2a; 10 μg IP days 3 and 4, day 7): 107 ± 45 µg/mL
- IgG2a ± SD (IgG2a; 10 μg IP days 3 and 4, day 8): 276 ± 168 µg/mL
- IgG2a ± SD (IgG2a; 10 μg IP days 3 and 4, day 9): 855 ± 117 µg/mL
- IgG2a ± SD (IgG2a; 10 μg IP days 3 and 4, day 11): 1097 ± 289 µg/mL
- IgG2a ± SD (IgG2a; 10 μg IP days 3 and 4, day -1 baseline before treatment): 26 ± 7 µg/mL
- IgG2a ± SD (IgG2a; 20 μg IP days 3 and 4, day 7): 182 ± 105 µg/mL
- IgG2a ± SD (IgG2a; 20 μg IP days 3 and 4, day 8): 493 ± 187 µg/mL
- IgG2a ± SD (IgG2a; 20 μg IP days 3 and 4, day 9): 1170 ± 285 µg/mL
- IgG2a ± SD (IgG2a; 20 μg IP days 3 and 4, day 11): 2133 ± 862 µg/mL
- IgG2a ± SD (IgG2a; 20 μg IP days 3 and 4, day -1 baseline before treatment): 29 ± 9 µg/mL
- IgG2a ± SD (IgG2a; 40 μg IP days 3 and 4, day 7): 81 ± 12 µg/mL
- IgG2a ± SD (IgG2a; 40 μg IP days 3 and 4, day 8): 433 ± 314 µg/mL
- IgG2a ± SD (IgG2a; 40 μg IP days 3 and 4, day 9): 1177 ± 383 µg/mL
- IgG2a ± SD (IgG2a; 40 μg IP days 3 and 4, day 11): 1667 ± 675 µg/mL
- IgG2a ± SD (IgG2a; [3]): 23 ± 1 µg/mL

Structure (SMILES): CCCCC(C)(O)C/C=C/[C@H]1[C@H](O)CC(=O)[C@@H]1CCC1CC1CCC(=O)OC (relative stereo) [(±) methyl 2-[2-[3R-3α-hydroxy-2β-(4-hydroxy-4-methyl-1E-octenyl)-5-oxo-1α-cyclopentyl]ethyl]cyclopropanepropanoate]
- inhibition of IgG1 (IgG1; 20 μg days 3 and 4, Example 23): not IgG1, IgG2a or IgG3
- IgG1 ± SD (IgG1; [4]): 22573 ± 5690 µg/mL
- inhibition of IgG2a (IgG2a; 20 μg days 3 and 4, Example 23): not IgG1, IgG2a or IgG3
- IgG2a ± (IgG2a; 20 μg days 3 and 4): 840 ± 484 µg/mL

Structure (SMILES): CCCCC(C)(O)C/C=C/[C@H]1[C@H](O)CC(=O)[C@@H]1CC1CC1CCCC(=O)OC (relative stereo) [(±) methyl 2-[2-[3R-3α-hydroxy-2β-(4-hydroxy-4-methyl-1E-octenyl)-5-oxo-1α-cyclopentyl]methyl]cyclopropanebutanoate]
- inhibition of IgG1 (IgG1; 20 μg days 3 and 4, Example 23): not IgG1, IgG2a or IgG3
- IgG1 ± SD (IgG1; [4]): 14470 ± 2997 µg/mL
- inhibition of IgG2a (IgG2a; 20 μg days 3 and 4, Example 23): not IgG1, IgG2a or IgG3
- IgG2a ± (IgG2a; 20 μg days 3 and 4): 834 ± 235 µg/mL

Structure (SMILES): CCCCC(C)(O)C/C=C/[C@H]1[C@H](O)CC(=O)[C@@H]1C/C=C\C=CCC(=O)OC (relative stereo) [(±) methyl 11α,16-dihydroxy-16-methyl-9-oxoprosta-3,5Z,13-trien-1-oate]
- inhibition of IgG1 (IgG1; 20 μg days 3 and 4, Example 25): not IgG1, IgG2a, IgG3 and IgM
- IgG1 ± SD (IgG1; [1]): 18320 ± 4695 µg/mL
- inhibition of IgG2a (IgG2a; 20 μg days 3 and 4, Example 25): not IgG1, IgG2a, IgG3 and IgM
- IgG2a ± SD (IgG2a; [2]): 1202 ± 338 µg/mL
- inhibition of IgM (IgM): not IgG1, IgG2a, IgG3 and IgM
- IgM ± SD (IgM): 7708 µg/mL
